Results as given in patent publication EP3666765A1, “CHROMENIC PHYTOCANNABINOIDS, THEIR SYNTHESIS AND USE IN TREATMENT OR PREVENTION OF DISEASE” (Emerald Health Biotechnology España,S.L.U., priority 2018, dated 2020).

Molecular target: T1, mono-acyl glycerol lipase (MAGL) (Homo sapiens, UniProt Q99685)
T1 construct: purchased Cayman Chemical
T1 sequence (Q99685 1-303): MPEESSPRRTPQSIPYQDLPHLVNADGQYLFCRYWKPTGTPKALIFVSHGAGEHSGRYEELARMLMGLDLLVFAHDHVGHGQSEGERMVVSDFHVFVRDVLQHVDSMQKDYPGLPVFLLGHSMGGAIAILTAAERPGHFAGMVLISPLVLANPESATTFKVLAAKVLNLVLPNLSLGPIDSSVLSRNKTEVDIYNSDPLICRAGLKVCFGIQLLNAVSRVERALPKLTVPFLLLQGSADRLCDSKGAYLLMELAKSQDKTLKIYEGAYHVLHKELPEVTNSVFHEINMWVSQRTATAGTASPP
Assay: In vitro inhibition of mono-acyl glycerol lipase (Monoacylglycerol Lipase Inhibitor Screening Assay Kit, Cayman Chemical; colorimetric)
Assay type: biochemical
Conditions: human recombinant enzyme; 5 min pre-incubation at room temperature (20 °C); substrate 4-nitrophenylacetate (236 µM), 30 min; absorbance at 412 nm; read-out: IC50 against MAGL
Experimental: The ability of the compounds of the present invention to inhibit mono-acyl glycerol lipase (MAGL) was estimated using their IC50 value. MALG inhibition was measured using the Monoacylglycerol Lipase Inhibitor Screening Assay Kit (Cayman Chemical, USA). Briefly, in 96-well plate, samples and human recombinant enzyme were incubated for five minutes at room temperature (20 °C). After that, an ethanolic solution of 4-nitrophenylacetate (236 µM), as colorimetric substrate, was added to the wells and plates were incubated for 30 minutes at room temperature. Finally, absorbance was measured at 412 nm. JZL195 {(4-nitrophenyl)-4-[(3-phenoxyphenyl)methyl]piperazine-1-carboxylate, 5 µM} was used as a positive control. Background obtained was subtracted in each experimental value and the percentage of inhibition was established with the formula (Absorbance 100% Activity - Absorbance of the sample)/Absorbance 100% Activity. Table 1: MAGL inhibition (IC50) for compounds of the invention

CCCCCC1=CC(=O)C2=C(OC(C)(CCC=C(C)C)C=C2)C1=O (stereo not drawn) [(A), 2-methyl-2-(4-methylpent-3-enyl)-7-pentyl-chromene-5,8-dione]
IC50: 4.44 µM

CCCCCC1=CC(=O)C2=C(OC(C)(C)C=C2)C1=O [(B), 2,2-dimethyl-7-pentyl-chromene-5,8-dione]
IC50: 4.5 µM

CCCC1=CC(=O)C2=C(OC(C)(CCC=C(C)C)C=C2)C1=O (stereo not drawn) [(C), 2-methyl-2-(4-methylpent-3-enyl)-7-propyl-chromene-5,8-dione]
IC50: 6.64 µM
